From patent publication US20140023611A1 (priority 2010, published 2014)

Target: T1, rat NaP2b (SLC34A2) (Rattus norvegicus, UniProt Q9JJ09)
T1 construct: host or cells: HEK293
T1 sequence (Q9JJ09 1-695): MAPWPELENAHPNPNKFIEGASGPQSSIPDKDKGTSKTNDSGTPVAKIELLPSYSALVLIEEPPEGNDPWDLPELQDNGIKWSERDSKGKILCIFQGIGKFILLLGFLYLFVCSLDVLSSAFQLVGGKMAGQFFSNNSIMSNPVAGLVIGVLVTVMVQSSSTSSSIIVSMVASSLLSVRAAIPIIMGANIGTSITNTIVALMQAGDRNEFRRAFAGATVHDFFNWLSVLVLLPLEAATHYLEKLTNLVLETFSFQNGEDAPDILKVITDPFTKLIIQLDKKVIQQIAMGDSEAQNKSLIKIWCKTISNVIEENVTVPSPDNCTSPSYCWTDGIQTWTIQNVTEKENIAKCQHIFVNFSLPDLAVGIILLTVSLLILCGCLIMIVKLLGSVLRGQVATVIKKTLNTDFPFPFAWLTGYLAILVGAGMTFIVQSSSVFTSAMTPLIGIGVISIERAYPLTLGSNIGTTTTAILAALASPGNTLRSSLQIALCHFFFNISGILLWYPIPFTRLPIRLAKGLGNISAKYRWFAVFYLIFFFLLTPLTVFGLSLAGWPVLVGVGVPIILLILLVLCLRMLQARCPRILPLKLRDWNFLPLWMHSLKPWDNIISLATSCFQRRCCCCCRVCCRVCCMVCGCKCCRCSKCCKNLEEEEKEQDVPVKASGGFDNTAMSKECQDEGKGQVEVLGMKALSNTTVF
Assay: Inhibition of NaP2b-mediated Pi (33P) uptake in transfected HEK293 cells, rat NaP2b
Assay type: cell-based
Conditions: 33P Pi uptake, 0.1 mM phosphate, value given as pIC50 range
Method in brief: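 HEK293 cells were transiently transfected with NaP2b cDNA using Lipofectamine and grown near confluence. Compounds were tested at twelve concentrations from 0.1 nM to 30 uM in duplicate, and 33P-phosphate uptake was counted by scintillation after lysis. Results are expressed as pIC50.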
`O=C(O)CCCNC(=O)Cc1cccc(SCc2cccc(C(=O)Nc3ccc(N4CCCCC4)cc3-c3cc(C(=O)NCc4cccc(C(F)(F)F)c4)ccn3)c2)c1` [Example 141] showed an IC50 of 1 to 7.94 µM. Work on `COCCOCCOCCOCCOCCOCCOCCOCCNC(=O)[C@@H]1CCCN1CCN(C)C(=O)c1cccc(C(=O)Nc2ccc(N3CCCCC3)cc2-c2cc(C(=O)N[C@H]3CCCc4ccccc43)ccn2)c1` [Example 195, N^1-(2-((S)-2-(2,5,8,11,14,17,20,23-octaoxapentacosan-25-ylcarbamoyl)pyrrolidin-1-yl)ethyl)-N-methyl-N^3-(4-(piperidin-1-v)-2-(4-(((S)-1,2,3,4-tetrahydronaphthalen-1-yl)carbamoyl)pyridin-2-yl)phenyl)isophthalamide] yielded an IC50 of 1 to 7.94 µM. With `COCCN(C)C(=O)N1CCN(CCN(C)C(=O)c2cccc(C(=O)Nc3ccc(N4CCCCC4)cc3-c3cc(C(=O)NCc4cccc(C(F)(F)F)c4)ccn3)c2)CC1` [Example 211, N1-(2-(4-((2-methoxyethyl)(methyl)carbamoyl)piperazin-1-yl)ethyl)-N1-methyl-N3-(4-(piperidin-1-yl)-2-(4-(3-(trifluoromethyl)benzylcarbamoyl)pyridin-2-yl)phenyl)isophthalamide] the IC50 was 1 to 7.94 µM. In the case of `CCN(CC)c1ccc(NC(=O)c2cccc(CCCOCCOCCOCC[N+](CC)(CC)CC)c2)c(-c2cc(C(=O)NCc3cccc(C(F)(F)F)c3)ccn2)c1` [Example 330, 2-(2-(2-(3-(3-(4-(diethylamino)-2-(4-(3-(trifluoromethyl)benzylcarbamoyl)pyridin-2-yl)phenylcarbamoyl)phenyl)propoxy)ethoxy)ethoxy)-N,N,N-triethylethanaminium], the IC50 is reported as 1 to 7.94 µM. For `CCN(CC)c1ccc(NC(=O)c2ccc(CCCOCCOCCOCC[N+]34CCC(CC3)CC4)cc2)c(-c2cc(C(=O)NCc3cccc(C(F)(F)F)c3)ccn2)c1` [Example 331, 1-(2-(2-(2-(3-(4-(4-(diethylamino)-2-(4-(3-(trifluoromethyl)benzylcarbamoyl)pyridin-2-yl)phenylcarbamoyl)phenyl)propoxy)ethoxy)ethoxy)ethyl)-1-azonia-bicyclo[2.2.2]octane], the “pIC50 range for rat Nap2b” value was 5.1-6.0. `COCCOCCOCCOCCOCCOCCOCCN(C)C(=O)C1CCN(CCN(C)C(=O)c2cccc(C(=O)Nc3ccc(N4CCCCC4)cc3-c3cc(C(=O)N[C@H]4CCCc5ccccc54)ccn3)c2)CC1` [Example 334, (S)—N^1-(2-(4-(2,5,8,11,14,17,20-Heptaoxadocosan-22-yl(methyl)carbamoyl)piperidin-1-yl)ethyl)-N1-methyl-N3-(4-(piperidin-1-yl)-2-(4-(1,2,3,4-tetrahydronaphthalen-1-ylcarbamoyl)pyridin-2-yl)phenyl)isophthalamide] showed an IC50 of 10 to 31.6 µM. With `CCN(CC)c1ccc(NC(=O)c2cccc(C(=O)N(C)CCN(C)CCOCCOCCOCCNC(C)=O)c2)c(-c2cc(C(=O)N[C@H]3CCCc4ccccc43)ccn2)c1` [Example 341, (S)—N^1-(4-(Diethylamino)-2-(4-(1,2,3,4-tetrahydronaphthalen-1-ylcarbamoyl)pyridin-2-yl)phenyl)-N^3-methyl-N^3-(3-methyl-16-oxo-6,9,12-trioxa-3,15-diazaheptadecyl)isophthalamide] the IC50 was 1 to 7.94 µM. Work on `CCN(CC)c1ccc(NC(=O)c2cccc(C(=O)N(C)CCN(C)CCOCCOCCOCCNC(=O)c3cccnc3)c2)c(-c2cc(C(=O)N[C@H]3CCCc4ccccc43)ccn2)c1` [Example 342, (S)—N^1-(4-(Diethylamino)-2-(4-(1,2,3,4-tetrahydronaphthalen-1-ylcarbamoyl)pyridin-2-yl)phenyl)-N^3-methyl-N^3-(14-methyl-1-oxo-1-(pyridin-3-yl)-5,8,11-trioxa-2,14-diazahexadecan-16-yl)isophthalamide] yielded an IC50 of 1 to 7.94 µM. Work on `CCN(CC)c1ccc(NC(=O)c2cccc(C(=O)N(C)CCN(C)CCOCCOCCOCCNC(=O)C3CCOCC3)c2)c(-c2cc(C(=O)N[C@H]3CCCc4ccccc43)ccn2)c1` [Example 343, (S)—N^1-(4-(Diethylamino)-2-(4-(1,2,3,4-tetrahydronaphthalen-1-ylcarbamoyl)pyridin-2-yl)phenyl)-N^3-methyl-N^3-(14-methyl-1-oxo-1-(tetrahydro-2H-pyran-4-yl)-5,8,11-trioxa-2,14-diazahexadecan-16-yl)isophthalamide] yielded an IC50 of 1 to 7.94 µM. In the case of `CCN(CC)c1ccc(NC(=O)c2cccc(C(=O)N(C)CCN(C)CCOCCOCCOCCNC(=O)c3cscn3)c2)c(-c2cc(C(=O)N[C@H]3CCCc4ccccc43)ccn2)c1` [Example 344, (S)—N-(4-(Diethylamino)-2-(4-(1,2,3,4-tetrahydronaphthalen-1-ylcarbamoyl)pyridin-2-yl)phenyl)-N^3-methyl-N^3-(14-methyl-1-oxo-1-(thiazol-4-yl)-5,8,11-trioxa-2,14-diazahexadecan-16-yl)isophthalamide], the IC50 is reported as under 1 µM. Compound `CCN(CC)c1ccc(NC(=O)c2cccc(C(=O)N(C)CCN(C)CCOCCOCCOCCNC(=O)c3ccc(O)cc3)c2)c(-c2cc(C(=O)N[C@H]3CCCc4ccccc43)ccn2)c1` [Example 345, (S)—N^1-(4-(Diethylamino)-2-(4-(1,2,3,4-tetrahydronaphthalen-1-ylcarbamoyl)pyridin-2-yl)phenyl)-N^3-(1-(4-hydroxyphenyl)-14-methyl-1-oxo-5,8,11-trioxa-2,14-diazahexadecan-16-yl)-N^3-methylisophthalamide] has an IC50 of 1 to 7.94 µM. With `CCN(CC)c1ccc(NC(=O)c2cccc(C(=O)N(C)CCN(C)CCOCCOCCOCCNC(=O)C(C)(C)C)c2)c(-c2cc(C(=O)NCc3cccc(C(F)(F)F)c3)ccn2)c1` [Example 346, N2-(4-(diethylamino)-2-(4-(3-(trifluoromethyl)benzylcarbamoyl)pyridin-2-yl)phenyl)-N^3-methyl-N^3-(3,17,17-trimethyl-16-oxo-6,9,12-trioxa-3,15-diazaoctadecyl)isophthalamide] the “pIC50 range for rat Nap2b” value was 5.1-6.0. In the case of `O=C(O)CCOCCOCCOCCOCCCc1cccc(C(=O)Nc2ccc(OC3CCCC3)cc2-c2cc(C(=O)N[C@H]3CCCc4ccccc43)ccn2)c1` [Example 347, (S)-16-(3-(4-(cyclopentyloxy)-2-(4-(1,2,3,4-tetrahydronaphthalen-1-ylcarbamoyl)pyridin-2-yl)phenylcarbamoyl)phenyl)-4,7,10,13-tetraoxahexadecan-1-oic acid], the IC50 is reported as under 1 µM.

Tested on: not listed separately
Assay: Determination of compound Cmax and AUC after oral gavage (plasma LC-MS/MS)
Assay type: in vivo, Sprague-Dawley rats
Conditions: Sprague-Dawley, rat, plasma, po, Structure (I) examples, Table 15, actual oral dose 3-15 mg/kg, plasma 0.5-4 h
Procedure: (§1) Sprague-Dawley rats were orally gavaged with test article at a nominal dose of 2.5 or 10 mg/kg and blood was collected at 0.5, 1, 2 and 4 h. Blood samples were processed to plasma using K2EDTA as an anticoaglulant. Plasma samples were treated with acetonitrile containing an internal standard, precipitated proteins removed by centrifugation. Supernatants were analyzed by LC-MS/MS and compound concentrations were determined by interpolation from a standard curve prepared in plasma. All compounds were orally dosed at the dosage shown, and pharmacokinetic parameters determined.
as §1, with “interpolated” for “interpolation”
as §1, with “interpolated” for “interpolation”
`O=C(O)CCSCc1cccc(C(=O)Nc2ccc(N3CCCCC3)cc2-c2cc(C(=O)NCc3cccc(C(F)(F)F)c3)ccn2)c1` [Example 1.1, 3-(3-((2-(4-((3-(Trifluoromethyl)benzyl)carbamoyl)pyridin-2-yl)-4-(piperidin-1-yl)phenyl)carbamoyl)benzylthio)propanoic acid] gave an AUC of over 50 ng·h/mL and a Cmax of under 50 ng/mL. `CN(CCN1CCOCC1)C(=O)c1cccc(C(=O)Nc2ccc(OC3CCC3)cc2-c2cc(C(=O)NCc3cccc(C(F)(F)F)c3)ccn2)c1` [Example 26] showed an AUC of under 30 ng·h/mL and a Cmax of under 30 ng/mL. In the case of `O=C(O)CCCNC(=O)Cc1cccc(SCc2cccc(C(=O)Nc3ccc(N4CCCCC4)cc3-c3cc(C(=O)NCc4cccc(C(F)(F)F)c4)ccn3)c2)c1` [Example 141], the AUC is reported as over 50 ng·h/mL and the Cmax is reported as over 50 ng/mL. Compound `COCCOCCOCCOCCOCCOCCOCCOCCNC(=O)[C@@H]1CCCN1CCN(C)C(=O)c1cccc(C(=O)Nc2ccc(N3CCCCC3)cc2-c2cc(C(=O)N[C@H]3CCCc4ccccc43)ccn2)c1` [Example 195, N^1-(2-((S)-2-(2,5,8,11,14,17,20,23-octaoxapentacosan-25-ylcarbamoyl)pyrrolidin-1-yl)ethyl)-N-methyl-N^3-(4-(piperidin-1-v)-2-(4-(((S)-1,2,3,4-tetrahydronaphthalen-1-yl)carbamoyl)pyridin-2-yl)phenyl)isophthalamide] has an AUC of under 10 ng·h/mL and a Cmax of under 10 ng/mL. Work on `COCCN(C)C(=O)N1CCN(CCN(C)C(=O)c2cccc(C(=O)Nc3ccc(N4CCCCC4)cc3-c3cc(C(=O)NCc4cccc(C(F)(F)F)c4)ccn3)c2)CC1` [Example 211, N1-(2-(4-((2-methoxyethyl)(methyl)carbamoyl)piperazin-1-yl)ethyl)-N1-methyl-N3-(4-(piperidin-1-yl)-2-(4-(3-(trifluoromethyl)benzylcarbamoyl)pyridin-2-yl)phenyl)isophthalamide] yielded an AUC of under 30 ng·h/mL and a Cmax of under 10 ng/mL.

Same assay, conditions: Sprague-Dawley, rat, plasma, po, Structure (II) examples, Table 6, actual oral dose 7.6-11 mg/kg
Work on `O=C(O)CCSCc1cccc(C(=O)Nc2ccc(N3CCCCC3)cc2C(=O)Nc2ccn(-c3cccc(C(F)(F)F)c3)n2)c1` [Example 7] yielded an AUC of 467 ng·h/mL and a Cmax of 393 ng/mL. Compound `CN(CCN1CCOCC1)C(=O)c1cccc(C(=O)Nc2ccc(N3CCCCC3)cc2C(=O)Nc2ccn(-c3cccc(C(F)(F)F)c3)n2)c1` [Example 11] has an AUC of 9.8 ng·h/mL and a Cmax of 5 ng/mL. Work on `CN(CCOCCOCCOCCC(=O)O)C(=O)c1cccc(C(=O)Nc2ccc(N3CCCCC3)cc2C(=O)Nc2ccn(-c3cccc(C(F)(F)F)c3)n2)c1` [Example 15] yielded an AUC of 11 ng·h/mL and a Cmax of 10 ng/mL. With `O=C(O)CCOCCOCCOCCNC(=O)Cc1cccc(SCc2cccc(C(=O)Nc3ccc(N4CCCCC4)cc3C(=O)Nc3ccn(-c4cccc(C(F)(F)F)c4)n3)c2)c1` [Example 26] the Cmax was 3 ng/mL.

Same assay, conditions: Sprague-Dawley, rat, plasma, po, Structure (III) examples, Table 6, actual oral dose 8.9-10 mg/kg
With `CN(CCN1CCOCC1)C(=O)c1cccc(C(=O)Nc2ccc(N3CCCCC3)cc2C(=O)Nc2cnc(-c3ccccc3)nc2)c1` [Example 11] the AUC was 140 ng·h/mL and the Cmax was 70 ng/mL.
